Consider one compound from paper PMC6884575, “Suppression of FOXM1 activities and breast cancer growth in vitro and in vivo by a new class of compounds” (NPJ Breast Cancer, 2019).

The target in data set [1] is T1, FOXM1 (Homo sapiens, UniProt Q08050).
T1 sequence (Q08050 1-763): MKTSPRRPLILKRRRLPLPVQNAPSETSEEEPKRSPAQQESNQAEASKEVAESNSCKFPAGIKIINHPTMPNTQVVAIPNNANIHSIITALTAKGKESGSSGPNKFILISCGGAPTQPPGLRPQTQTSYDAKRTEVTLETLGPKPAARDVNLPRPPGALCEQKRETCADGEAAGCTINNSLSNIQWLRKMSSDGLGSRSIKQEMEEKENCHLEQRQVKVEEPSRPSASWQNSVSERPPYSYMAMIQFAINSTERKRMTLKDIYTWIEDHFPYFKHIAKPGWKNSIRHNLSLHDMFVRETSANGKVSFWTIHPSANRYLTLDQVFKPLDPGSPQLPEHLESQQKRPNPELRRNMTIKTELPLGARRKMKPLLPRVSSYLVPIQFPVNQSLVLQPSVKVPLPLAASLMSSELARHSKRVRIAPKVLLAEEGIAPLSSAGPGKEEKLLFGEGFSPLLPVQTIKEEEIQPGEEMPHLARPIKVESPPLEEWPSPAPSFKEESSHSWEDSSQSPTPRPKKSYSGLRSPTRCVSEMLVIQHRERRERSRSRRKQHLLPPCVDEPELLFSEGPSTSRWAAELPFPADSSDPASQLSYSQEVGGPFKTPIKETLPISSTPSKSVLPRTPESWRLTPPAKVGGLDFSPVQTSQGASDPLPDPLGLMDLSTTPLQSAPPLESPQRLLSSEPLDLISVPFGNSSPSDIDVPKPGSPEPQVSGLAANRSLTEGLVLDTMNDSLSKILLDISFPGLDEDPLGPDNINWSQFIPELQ
Description: Intracellular localization of FOXM1 (immunofluorescence, nuclear/cytoplasmic fractionation). The data set is classed as cell-based. Also on record: endogenous in cells; host or cells: MDA-MB-231, MCF7. The settings on record: 24 h, Western blot of nuclear and cytoplasmic extracts. As for the experimental part: (§1) In some cases, treatments with compound were done in the presence of the proteasome inhibitor MG132 (Calbiochem) as described in the figure legend. […] Band intensities were analyzed with Licor Odyssey 2.1 software. All blots shown together derive from the same experiment and were processed in parallel. Full uncropped images of blots are shown as supplementary figures in the Supplementary Information file. Molecular weight markers were Rainbow markers from GE Healthcare (38–225 kDa) or Precision Plus Dual Color Markers from Biorad (37–250 kDa).
Background: Immunoblotting shows a protein as a band on a membrane.

Data set [2] has as its target T1, FOXM1. Briefly: tr-FRET competitive binding assay with Fl-NB-72 probe. The settings on record: calculated from IC50 values; Supplementary Table 1; read-out: Ki, affinity for binding to FOXM1 protein. On the set-up: we attached a terbium donor to purified, full length FOXM1 through a streptavidin-biotin linker. As for the experimental part:
Competitive binding assays of compound binding to FOXM1 by tr-FRET were done in FRET buffer (20 mM Tris, pH 7.5, 50 mM NaCl, 0.01% NP-40 detergent, 10% glycerol) with 0.3 mg/ml ovalbumin and 0.1 mM butylated hydroxy-anisole added fresh daily. Solutions of the protein, fluorescent probe and compound dilutions were prepared at 3× concentrations, the final dilution taking place as they were mixed together in equal portions on the microtiter plate.
Final concentrations were 10^−5 M to 10^−9 M, with the last point being buffer only, no compound. Fluorescein-NB-72 (Fl-NB- 72) was prepared at 1 mM in DMF and stored at −20 °C. It was diluted into FRET buffer to give 100 nM in the assay. Incubations were done in duplicate on black Molecular Devices 96-well microtiter plates. 5 μl of Fl-NB-72 and 5 μl of the compound dilutions, were mixed together on the plate. To this was added 5 µl biotin-FoxM1 and incubated in the dark at room temperature, for 1 h. […] To correct for background signals, biotin-FOXM1 was omitted, and diffusion-enhanced FRET incubations were done in duplicate on black Molecular Devices 96-well microtiter plates. Five microliter of Fl-NB-72 and 5 μl of the compound solutions were mixed together and then 5 µl of FRET buffer plus SaTb was added, mixed and incubated in the dark at room temperature, for 1 h. The tr-FRET signals measured as above were subtracted as a background from the first incubations that contained biotin-FOXM1. Graphs were prepared using Graph Pad/Prism 4.

Data set [3] concerns FOXM1 target gene expression in MCF7 cells. Briefly: FOXM1 target gene expression by qRT-PCR. The data set is classed as cell-based, human. The conditions noted are these: MCF7, 24 h, compound at its IC50 for proliferation. How it is done: Total RNA was isolated using TRIzol (Invitrogen) and reverse transcribed using […] reverse transcriptase (New England BioLabs). Real-time PCR was performed using SYBRgreen PCR Master Mix (Quantabio) as described.[15] Relative mRNA levels of genes were normalized to the housekeeping gene 36B4, and fold-change calculated relative to the vehicle treated samples. Results are the average ± SD from at least two independent experiments carried out in triplicate. Primer sequences for the genes studied were obtained from the Harvard Primer Bank. Sequences are available on their website.

The test system of data set [4] is human breast cancer cell lines (DT22, MCF7, T47D, BT474, MDA-MB-453, MDA-MB-468, MDA-MB-231). Description: Cell proliferation (WST-1) in panel of breast cancer cell lines. The data set is classed as cell-based. The settings on record: cells in culture. How it is done:
WST-1 assay (Roche, Basel, Switzerland) was used to quantify cell viability as described.[38] Absorbance was measured at 450 nm using a VICTOR X5 PerkinElmer 2030 Multilabel Plate Reader. All assays were performed in triplicate and analyzed using Graph Pad Prism 8.0.
(In general: Formazan colour is commonly taken as a measure of viable cells.)

For the next data set, the system named is MCF7 cells. Briefly: RNA-Seq gene regulation in MCF7 cells. The data set is classed as cell-based, human. How it is done:
For gene expression analysis, total RNA was extracted from cells using Trizol reagent and further cleaned using the Turbo DNase and RNAqueous kits (ThermoFisher). Cells were treated with Veh (0.1% EtOH), or with the compounds indicated for 9 h or 24 h. Once the sample quality and replicate reproducibility were verified, samples from each group were subjected to sequencing. RNA at a concentration of 100 ng/µl in nuclease-free water was used for library construction. cDNA libraries were prepared with the mRNA-TruSeq Kit (Illumina, Inc.). In brief, the poly-A containing mRNA was purified from total RNA, the RNA was fragmented, double-stranded cDNA was generated from fragmented RNA, and adapters were ligated to the ends.
The paired-end read data from the HiSeq 4000 were processed and analyzed through a series of steps. Base calling and de-multiplexing of samples within each lane were done with Casava 1.8.2. The RNA sequences were prepared with Illumina’s TruSeq Stranded mRNAseq Sample Prep kit. Reads were trimmed of adapters and low expression data using Trimmomatic version 0.38.[42] The STAR alignment tool version 2.5.3a was used to align the sequenced reads to the GRCh37 human genome from Ensembl.[43] Gene counts were calculated using subread version 1.5.2.[44],[45] The edgeR Bioconductor package in R was used for normalization and differential expression analysis. Default normalization methods were used, specifically trimmed mean of M values or TMM was used to calculate the normalized expression values. This method calculates the weighted trimmed mean of the log expression ratios in a gene-wise fashion.[46],[47] We considered genes with fold-change > 2 and p-value < 0.05 as statistically significant, differentially expressed.

Data set [5] in a line: Pharmacokinetics in mice after single s.c. or oral dose. The class given is in vivo, female CD1 mice.
Description: The pharmacokinetics of compounds were monitored after single dose administration into female CD1 mice (7–9 weeks of age) via s.c. injection or oral gavage, as described.[39] For s.c. injection, each compound was dissolved in DMSO and then mixed with corn oil for a total injection volume of 100 μL (10% DSMO + 90% corn oil) per mouse. For oral gavage, compounds were administered in a 200 µL formulation of 9/0.5/0.5/90 parts of PEG400/Tween80/Povidone/0.5% Carboxymethylcellulose in DI water. […] Compounds were quantified by LC-MS/MS at the University of Illinois Metabolomics Core Facility. The data were fitted to a non-compartment model.
The target in data set [6] is T1, FOXM1. Briefly: Cellular FOXM1 protein level by Western blot. The data set is classed as cell-based. Also on record: endogenous in cells; host or cells: MDA-MB-231, MCF7. The settings on record: MDA-MB-231 or MCF7 cells over time; NB-55 5/8 µM, NB-73 1.5/4 µM, NB-115 4 µM, FDI-6 8 µM. How it is done: as §1, with “For Western blot analysis, whole-cell extracts were prepared using 1X RIPA lysis buffer (Thermo Fisher) supplemented with 1X protease inhibitor cocktail (Millipore Sigma). […] In some” for “In some”

The term Ki denotes a dissociation constant, usually derived from enzyme kinetics or from competition with a known ligand. Consider `Nc1c(C(=O)Nc2ccc(F)cc2)sc2nc(-c3cccs3)cc(C(F)(F)F)c12` [FDI-6, reference compound], for which the “intracellular localization of FOXM1” value on FOXM1 [1] was “does not change the intracellular localization of FOXM1”. Further, at FOXM1 [2], the Ki was 143 nM. In data set [3], the “expression of ATF3, a gene suppressed by FOXM1” value is listed as “increased expression of ATF3” and the “expression of FOXM1 stimulated target genes (FOXM1C, AURKB, CCNB1, PLK1)” value is “significantly reduced the expression”. The “potency in cells in culture” value in data set [4] is “potency similar to NB-55”. In addition, the “genes regulated that overlapped with NB-73 regulated genes” value in the data set on MCF7 cells (MCF7, 9 h, more than 2-fold, FDR < 0.05) is 48%. Besides, the “genes regulated more than 2-fold (Venn diagram)” value in the data set with MCF7 cells (MCF7, 9 h treatment, p < 0.05, FDI-6 20 µM) is reported as 664 genes. In addition, the blood levels result in data set [5] (oral, 40 mg/kg) is “undetectable”. For the same compound, the blood levels entry in data set [5] (s.c., 20 mg/kg) is reported as “only very low blood levels”. For the same compound, the “intracellular level of FOXM1” value on FOXM1 [6] is on record as “minimally affected”.
